Test results: PMC7570983, “Synthesis of Novel 2-(Isopropylamino)thiazol-4(5H)-one Derivatives and Their Inhibitory Activity of 11β-HSD1 and 11β-HSD2 in Aspect of Carcinogenesis Prevention” (Molecules, 2020)

Molecular target: T1, 11β-HSD2 (Homo sapiens, UniProt P80365)
T1 construct: gene HSD11B2
T1 sequence (P80365 1-405): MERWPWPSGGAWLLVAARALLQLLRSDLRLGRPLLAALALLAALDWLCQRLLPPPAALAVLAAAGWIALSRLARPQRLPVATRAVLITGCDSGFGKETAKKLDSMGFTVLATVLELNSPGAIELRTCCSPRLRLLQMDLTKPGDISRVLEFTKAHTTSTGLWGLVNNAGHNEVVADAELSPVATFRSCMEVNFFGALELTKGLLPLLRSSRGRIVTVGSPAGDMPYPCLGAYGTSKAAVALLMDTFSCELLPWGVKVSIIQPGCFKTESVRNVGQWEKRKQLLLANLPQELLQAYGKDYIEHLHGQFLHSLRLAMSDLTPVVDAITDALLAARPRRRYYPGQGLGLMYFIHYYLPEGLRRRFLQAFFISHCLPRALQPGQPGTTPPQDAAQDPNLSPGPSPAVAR
Assay: % inhibition at […], human kidney microsomes, cortisol ELISA
Type: cell-based
Settings: read-out: % of 11β-HSD2 Inhibition 10 μM/IC50 [μM] ^a

SMILES: CCC1SC(NC(C)C)=NC1=O (stereo not shown) [3b, 5-Ethyl-2-(isopropylamino)thiazol-4(5H)-one]
- inhibition at 10 µM: 47.1 ± 2.51%
